Laboratory results reported in US5935591A, “Method for treatment of equine protozoal myeloencephalitis with thiazolides” (Romark Laboratories, L.C., priority 1998, dated 1999).
In brackets after ≈: the same amount, converted by molar mass. Where two headings read alike, the source gives them in different places.

How the values were obtained:
[1] = cited from earlier work
[2] = tested on: facultative and obligate anaerobic Gram positive and Gram negative bacteria; details: cited from earlier work
[3] = tested on: equine protozoal myeloencephalitis (Sarcocystis infection); test: treatment of horses with nitazoxanide: symptoms of EPM; assay type: in vivo, horse
Procedure: (§1) All dosages were administered in solid (tablet) form.
(§2) This horse was positive for Sarcocystis infection in CSF and serum. […] The horse injured both hocks on day 12 by kicking the stall, resulting in edema of both rear limbs. […] On day 17 he was back to eating normally. Symptoms of EPM were gone by day 10 and have not returned.
(§3) This horse was positive for Sarcocystis infection in serological testing for antibody, showing no symptoms of the disease.
(§4) This horse was positive for Sarcocystis in serological testing for antibody, showing no symptoms of the disease.

Taenia pisiformis = details: single oral dose; dogs; cited from earlier work
Sarcocystis spp. = test: in vitro test system for activity against Sarcocystis spp.; assay type: cell-based; details: for activity in inhibiting the growth of the protozoa: in words
[4] = tested on: Gram positive bacteria such as Staphylococcus aureus; details: cited from earlier work
Syphacia obvelata = details: mice; cited from earlier work
Stilesia globipunctata = details: single oral dose; sheep; cited from earlier work
Hymenolepis nana = details: mice; cited from earlier work
Dipylidium caninum = details: single oral dose; dogs; cited from earlier work
Thysanezia ovilla = details: single oral dose; sheep; cited from earlier work
Trichuris vulpis = details: repeated doses; dogs; cited from earlier work
[5] = tested on: protozoan and helminthic pathogens; details: cited from earlier work
Taenia taeniaeformis = details: single oral dose; cats; cited from earlier work
Moniezia expansa = details: single oral dose; sheep; cited from earlier work
[6] = safety and tolerance of nitazoxanide in horses; assay type: in vivo, horse; details: for tolerance of the drug: oral
Procedure: as §1, §2, §3, §4

[7] = tested on: Avitellina centripunctata; details: single oral dose; sheep; cited from earlier work
Uncinaria stenocephala = details: repeated doses; dogs; cited from earlier work

Compound: CC(=O)Oc1ccccc1C(=O)Nc1ncc([N+](=O)[O-])s1 [nitazoxanide, 2-(acetolyloxy)-N-(5-nitro 2-thiazoly) benzamide]
- solubility ([1]; "either" (so in the source)): very poorly soluble
- solubility ([1]; acetic acid): poorly soluble
- solubility ([1]; acetone): fairly soluble
- solubility ([1]; chloroform): poorly soluble
- solubility ([1]; dioxane): fairly soluble
- solubility ([1]; ethanol): poorly soluble
- solubility ([1]; methyl benzene): very poorly soluble
- solubility ([1]; pyridine): easily soluble
- solubility ([1]; water): very poorly soluble
- antibacterial effect [2]: effective
- day by which symptoms of EPM were gone ([3]; Horse #1, Sarcocystis positive in CSF and serum, oral tablet, 50 mg/kg days 1-6, 100 mg/kg days 9-16, 150 mg/kg days 18-25): ≤ 10 days
- reoccurrence of symptoms ([3]; Horse #1, monitoring continued for 23 days): no reoccurrence of symptoms
- symptoms at the end of the trial and during the 30-day period after the trial ([3]; five horses, oral tablets, 50-150 mg/kg): absence of any symptoms
- cestocidal effect (Taenia pisiformis): cestocidal effect
- 50% inhibitory concentration (growth of the protozoa) (Sarcocystis spp.): approximately 0.475 μg/ml
- activity in inhibiting the growth of the protozoa (Sarcocystis spp.): highly active
- antibacterial effect [4]: effective
- effect of repeated doses (Syphacia obvelata): effect
- cestocidal effect (Stilesia globipunctata): cestocidal effect
- single dose activity (Hymenolepis nana): activity
- cestocidal effect (Dipylidium caninum): cestocidal effect
- cestocidal effect (Thysanezia ovilla): cestocidal effect
- efficacy against gastrointestinal nematodes (Trichuris vulpis): also observed
- activity against protozoan and helminthic pathogens [5]: activity against a number of protozoan and helminthic pathogens
- cestocidal effect (Taenia taeniaeformis): cestocidal effect
- cestocidal effect (Moniezia expansa): cestocidal effect
- eating of feed ([6]; Horse #1, days 15 and 16 (100 mg/kg days 9-16), back to eating normally on day 17): slow to finish eating feed
- tolerance of the drug ([6]; Horse #2, 75 mg/kg days 1-6, 100 mg/kg days 9-16, 150 mg/kg days 18-25): tolerated the drug well at all dose levels
- tolerance of the drug ([6]; Horse #3, 75 mg/kg days 1-6, 100 mg/kg days 9-16, 150 mg/kg days 18-27): tolerated the drug well at all dose levels
- tolerance of the drug ([6]; Horse #4, 75 mg/kg days 1-6, 100 mg/kg days 9-16, 150 mg/kg days 18-27): tolerated the drug well at all dose levels
- tolerance of the drug ([6]; Horse #5, 75 mg/kg days 1-6, 100 mg/kg days 9-16, 150 mg/kg days 18-27): tolerated the drug well at all dose levels
- signs of toxicity ([6]; all five horses): no signs of toxicity
- cestocidal effect [7]: cestocidal effect
- efficacy against gastrointestinal nematodes (Uncinaria stenocephala): also observed

Compound: O=C(Nc1ncc([N+](=O)[O-])s1)c1ccccc1O [tizoxanide]
- activity in inhibiting the growth of the protozoa (Sarcocystis spp.): highly active
- IC50 (Sarcocystis spp.; read-out: 50% inhibitory concentration (growth of the protozoa)): ~0.475 µg/mL (≈ 1.79 µM)
